Experiments:
Pasteurella multocida = assay: minimum inhibitory concentration (MIC)
Description: (§1)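 Broth microdilution MIC (Sensititre BOPO7F bovine plate, CLSI methods) of 19 antimicrobials against field isolates of P. multocida, M. haemolytica, H. somni (deep nasopharyngeal swabs) and E. coli, Enterococcus spp. (rectal swabs) from weaned dairy heifers. Incubation 16-24 h at 35 C. MIC is the lowest concentration preventing visible growth. Values with <= or > lie at the tested range limits. Trimethoprim-sulfamethoxazole is given as the trimethoprim component of a 1:19 mixture.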

Enterococcus spp. = assay: minimum inhibitory concentration (MIC)
Description: as §1

[1] = isolate (source animal id): 168
[2] = isolate (source animal id): 169
[3] = isolate (source animal id): 171
[4] = isolate (source animal id): 175
[5] = isolate (source animal id): 177
[6] = isolate (source animal id): 182
[7] = isolate (source animal id): 195
[8] = isolate (source animal id): 197
[9] = isolate (source animal id): 223
[10] = isolate (source animal id): 241
[11] = isolate (source animal id): 247
[12] = isolate (source animal id): 250
[13] = isolate (source animal id): 285
[14] = isolate (source animal id): 290
[15] = isolate (source animal id): 296
[16] = isolate (source animal id): 310

Measured: minimum inhibitory concentration

COc1cc(NS(=O)(=O)c2ccc(N)cc2)nc(OC)n1 [sulfadimethoxine]
> 256 µg/mL: Pasteurella multocida; isolate (source animal id): 10 | Pasteurella multocida; isolate (source animal id): 11 | Pasteurella multocida; isolate (source animal id): 12 | Pasteurella multocida; isolate (source animal id): 19 | Pasteurella multocida; isolate (source animal id): 23 | Pasteurella multocida; isolate (source animal id): 26 | Pasteurella multocida; isolate (source animal id): 98 | Pasteurella multocida; isolate (source animal id): 104 | Pasteurella multocida; isolate (source animal id): 115 | Pasteurella multocida; isolate (source animal id): 117 | Pasteurella multocida; isolate (source animal id): 118 | Pasteurella multocida; isolate (source animal id): 121 | Pasteurella multocida; isolate (source animal id): 124 | Pasteurella multocida; isolate (source animal id): 125 | Pasteurella multocida; isolate (source animal id): 128 | Pasteurella multocida; isolate (source animal id): 131 | Pasteurella multocida; isolate (source animal id): 135 | Pasteurella multocida; isolate (source animal id): 136 | Pasteurella multocida; isolate (source animal id): 140 | Pasteurella multocida; isolate (source animal id): 144 | Pasteurella multocida; isolate (source animal id): 146 | Pasteurella multocida; isolate (source animal id): 150 | Pasteurella multocida; isolate (source animal id): 151 | Pasteurella multocida; isolate (source animal id): 153 | Pasteurella multocida; isolate (source animal id): 155 | Pasteurella multocida; isolate (source animal id): 157 | Pasteurella multocida; isolate (source animal id): 160 | Pasteurella multocida; isolate (source animal id): 164 | Pasteurella multocida; isolate (source animal id): 165 | Pasteurella multocida; isolate (source animal id): 167 | Pasteurella multocida; [1] | Pasteurella multocida; [2] | Pasteurella multocida; isolate (source animal id): 170 | Pasteurella multocida; [3] | Pasteurella multocida; isolate (source animal id): 172 | Pasteurella multocida; isolate (source animal id): 173 | Pasteurella multocida; isolate (source animal id): 174 | Pasteurella multocida; [4] | Pasteurella multocida; isolate (source animal id): 176 | Pasteurella multocida; [5] | Pasteurella multocida; isolate (source animal id): 178 | Pasteurella multocida; isolate (source animal id): 179 | Pasteurella multocida; [6] | Pasteurella multocida; isolate (source animal id): 192 | Pasteurella multocida; isolate (source animal id): 193 | Pasteurella multocida; [7] | Pasteurella multocida; isolate (source animal id): 196 | Pasteurella multocida; [8] | Pasteurella multocida; isolate (source animal id): 198 | Pasteurella multocida; isolate (source animal id): 199 | Pasteurella multocida; isolate (source animal id): 200 | Pasteurella multocida; isolate (source animal id): 201 | Pasteurella multocida; isolate (source animal id): 203 | Pasteurella multocida; isolate (source animal id): 204 | Pasteurella multocida; isolate (source animal id): 205 | Pasteurella multocida; isolate (source animal id): 206 | Pasteurella multocida; isolate (source animal id): 207 | Pasteurella multocida; isolate (source animal id): 208 | Pasteurella multocida; isolate (source animal id): 209 | Pasteurella multocida; isolate (source animal id): 210 | Pasteurella multocida; isolate (source animal id): 213 | Pasteurella multocida; isolate (source animal id): 216 | Pasteurella multocida; [9] | Pasteurella multocida; isolate (source animal id): 227 | Pasteurella multocida; isolate (source animal id): 229 | Pasteurella multocida; isolate (source animal id): 233 | Pasteurella multocida; isolate (source animal id): 234 | Pasteurella multocida; isolate (source animal id): 237 | Pasteurella multocida; [10] | Pasteurella multocida; isolate (source animal id): 245 | Pasteurella multocida; [11] | Pasteurella multocida; [12] | Pasteurella multocida; isolate (source animal id): 254 | Pasteurella multocida; isolate (source animal id): 255 | Pasteurella multocida; isolate (source animal id): 258 | Pasteurella multocida; isolate (source animal id): 261 | Pasteurella multocida; isolate (source animal id): 262 | Pasteurella multocida; isolate (source animal id): 269 | Pasteurella multocida; isolate (source animal id): 270 | Pasteurella multocida; isolate (source animal id): 274 | Pasteurella multocida; isolate (source animal id): 275 | Pasteurella multocida; isolate (source animal id): 276 | Pasteurella multocida; isolate (source animal id): 277 | Pasteurella multocida; isolate (source animal id): 278 | Pasteurella multocida; isolate (source animal id): 279 | Pasteurella multocida; isolate (source animal id): 280 | Pasteurella multocida; isolate (source animal id): 284 | Pasteurella multocida; [13] | Pasteurella multocida; isolate (source animal id): 287 | Pasteurella multocida; [14] | Pasteurella multocida; isolate (source animal id): 294 | Pasteurella multocida; isolate (source animal id): 295 | Pasteurella multocida; [15] | Pasteurella multocida; isolate (source animal id): 307 | Pasteurella multocida; [16] | Pasteurella multocida; isolate (source animal id): 311 | Pasteurella multocida; isolate (source animal id): 312 | Pasteurella multocida; isolate (source animal id): 313 | Pasteurella multocida; isolate (source animal id): 315 | Pasteurella multocida; isolate (source animal id): 316 | Enterococcus spp.; isolate (source animal id): 2 | Enterococcus spp.; isolate (source animal id): 35 | Enterococcus spp.; isolate (source animal id): 42 | Enterococcus spp.; isolate (source animal id): 44 | Enterococcus spp.; isolate (source animal id): 79 | Enterococcus spp.; isolate (source animal id): 88 | Enterococcus spp.; isolate (source animal id): 91 | Enterococcus spp.; isolate (source animal id): 92 | Enterococcus spp.; isolate (source animal id): 111 | Enterococcus spp.; isolate (source animal id): 122 | Enterococcus spp.; isolate (source animal id): 123 | Enterococcus spp.; isolate (source animal id): 133 | Enterococcus spp.; isolate (source animal id): 158 | Enterococcus spp.; [1] | Enterococcus spp.; [2] | Enterococcus spp.; [3] | Enterococcus spp.; [4] | Enterococcus spp.; [5] | Enterococcus spp.; isolate (source animal id): 181 | Enterococcus spp.; [6] | Enterococcus spp.; isolate (source animal id): 183 | Enterococcus spp.; isolate (source animal id): 187 | Enterococcus spp.; isolate (source animal id): 190 | Enterococcus spp.; isolate (source animal id): 194 | Enterococcus spp.; [7] | Enterococcus spp.; [8] | Enterococcus spp.; isolate (source animal id): 211 | Enterococcus spp.; isolate (source animal id): 214 | Enterococcus spp.; isolate (source animal id): 222 | Enterococcus spp.; [9] | Enterococcus spp.; isolate (source animal id): 228 | Enterococcus spp.; isolate (source animal id): 230 | Enterococcus spp.; isolate (source animal id): 235 | Enterococcus spp.; isolate (source animal id): 236 | Enterococcus spp.; isolate (source animal id): 239 | Enterococcus spp.; [10] | Enterococcus spp.; isolate (source animal id): 244 | Enterococcus spp.; isolate (source animal id): 246 | Enterococcus spp.; [11] | Enterococcus spp.; [12] | Enterococcus spp.; isolate (source animal id): 252 | Enterococcus spp.; isolate (source animal id): 268 | Enterococcus spp.; isolate (source animal id): 282 | Enterococcus spp.; [13] | Enterococcus spp.; isolate (source animal id): 289 | Enterococcus spp.; [14] | Enterococcus spp.; [15] | Enterococcus spp.; isolate (source animal id): 298 | Enterococcus spp.; isolate (source animal id): 301 | Enterococcus spp.; [16] | Enterococcus spp.; isolate (source animal id): 320 | Enterococcus spp.; isolate (source animal id): 331 | Enterococcus spp.; isolate (source animal id): 333 | Enterococcus spp.; isolate (source animal id): 341

— the supplement of paper PMC8612539
